Test system: T47D (PIK3CA H1047R) cells
Test: pS473 AKT assay with 2.5% FBS, T47D cells
Type: cell-based
Settings: Homo sapiens, pSer473 AKT, DMEM with 2.5% FBS, 2 h treatment, read-out: T47D_IC50
Method in brief: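 T47D (PIK3CA H1047R) cells were switched to DMEM with 2.5% FBS and exposed to compounds for 2 h. After paraformaldehyde fixation, pSer473 AKT was detected by in-cell ELISA (rabbit primary, HRP anti-rabbit secondary, chemiluminescence); IC50 values were fitted from the concentration series.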

| SMILES | IC50 |
| --- | --- |
| Cc1cc(C(C)Nc2ccc(Cl)nc2-c2cnn(C)c2)c2c(c1)c(=O)n(C)c1c2cnn1C1CCN(S(C)(=O)=O)CC1 (stereo not shown) [Example 183, 9-[1-[[6-chloro-2-(1-methylpyrazol-4-yl)-3-pyridyl]amino]ethyl]-4,7-dimethyl-3-(1-methylsulfonyl-4-piperidyl)pyrazolo[3,4-c]isoquinolin-5-one] | < 1 µM |
| COC(=O)N1CCC(n2ncc3c4c(C(C)Nc5ccc(Cl)nc5-c5cnn(C)c5)cc(C)cc4c(=O)n(C)c32)CC1 (stereo not shown) [Example 184, methyl 4-[9-[1-[[6-chloro-2-(1-methylpyrazol-4-yl)-3-pyridyl]amino]ethyl]-4,7-dimethyl-5-oxo-pyrazolo[3,4-c]isoquinolin-3-yl]piperidine-1-carboxylate] | < 1 µM |
| Cc1cc(C(C)Nc2ccc(Cl)nc2-c2cnn(C)c2)c2c(c1)c(=O)n(C)c1c2cnn1C1CCN(S(=O)(=O)C2CC2)CC1 (stereo not shown) [Example 185, 9-[1-[[6-chloro-2-(1-methylpyrazol-4-yl)-3-pyridyl]amino]ethyl]-3-(1-cyclopropylsulfonyl-4-piperidyl)-4,7-dimethyl-pyrazolo[3,4-c]isoquinolin-5-one] | < 1 µM |
| Cc1cc(C(C)Nc2ccc(Cl)nc2-c2cnn(C)c2)c2c(c1)c(=O)n(C)c1c2cnn1C1CCN(C(=O)N(C)C)CC1 (stereo not shown) [Example 186, 4-(9-(1-((6-chloro-2-(1-methyl-1H-pyrazol-4-yl)pyridin-3-yl)amino)ethyl)-4,7-dimethyl-5-oxo-4,5-dihydro-3H-pyrazolo[3,4-c]isoquinolin-3-yl)-N,N-dimethylpiperidine-1-carboxamide] | < 1 µM |
| CC(=O)N1CCC(n2ncc3c4c(C(C)Nc5ccc(Cl)nc5-c5ccc(=O)n(C)c5)cc(C)cc4c(=O)n(C)c32)CC1 (stereo not shown) [Example 187, 3-(1-acetylpiperidin-4-yl)-9-(1-((6-chloro-1′-methyl-6′-oxo-1′,6′-dihydro-[2,3′-bipyridin]-3-yl)amino)ethyl)-4,7-dimethyl-3,4-dihydro-5H-pyrazolo[3,4-c]isoquinolin-5-one] | < 1 µM |
| CC(=O)N1CCC(n2ncc3c4c(C(C)Nc5ccc(Cl)nc5-c5ncn(C)n5)cc(C)cc4c(=O)n(C)c32)CC1 (stereo not shown) [Example 188, 3-(1-acetylpiperidin-4-yl)-9-(1-((6-chloro-2-(1-methyl-1H-1,2,4-triazol-3-yl)pyridin-3-yl)amino)ethyl)-4,7-dimethyl-3,4-dihydro-5H-pyrazolo[3,4-c]isoquinolin-5-one] | < 1 µM |
| Cc1cc(C(C)Nc2ccc(C)nc2-c2cnn(C)c2)c2c(c1)c(=O)n(C)c1c2cnn1C1CCN(S(C)(=O)=O)CC1 (stereo not shown) [Example 189, 4,7-dimethyl-9-(1-((6-methyl-2-(1-methyl-1H-pyrazol-4-yl)pyridin-3-yl)amino)ethyl)-3-(1-(methylsulfonyl)piperidin-4-yl)-3,4-dihydro-5H-pyrazolo[3,4-c]isoquinolin-5-one] | < 1 µM |
| Cc1cc(C(C)Nc2ccc(Cl)nc2-c2ncn(C)n2)c2c(c1)c(=O)n(C)c1c2cnn1C1CCN(S(C)(=O)=O)CC1 (stereo not shown) [Example 190, 9-(1-((6-chloro-2-(1-methyl-1H-1,2,4-triazol-3-yl)pyridin-3-yl)amino)ethyl)-4,7-dimethyl-3-(1-(methylsulfonyl)piperidin-4-yl)-3,4-dihydro-5H-pyrazolo[3,4-c]isoquinolin-5-one] | < 1 µM |
| Cc1cc(C(C)Nc2ccc(Cl)nc2-c2ccc3c(c2)CN(C)C3=O)c2c(c1)c(=O)n(C)c1c2cnn1C1CCN(S(C)(=O)=O)CC1 (stereo not shown) [Example 191, 9-(1-((6-chloro-2-(2-methyl-1-oxoisoindolin-5-yl)pyridin-3-yl)amino)ethyl)-4,7-dimethyl-3-(1-(methylsulfonyl)piperidin-4-yl)-3,4-dihydro-5H-pyrazolo[3,4-c]isoquinolin-5-one] | < 1 µM |
| Cc1cc(C(C)Nc2ccc(Cl)nc2-c2ccc3ncccc3c2)c2c(c1)c(=O)n(C)c1c2cnn1C1CCN(S(C)(=O)=O)CC1 (stereo not shown) [Example 192, 9-(1-((6-chloro-2-(quinolin-6-yl)pyridin-3-yl)amino)ethyl)-4,7-dimethyl-3-(1-(methylsulfonyl)piperidin-4-yl)-3,4-dihydro-5H-pyrazolo[3,4-c]isoquinolin-5-one] | < 1 µM |
| Cc1cc(C(C)Nc2ccc(Cl)nc2-c2cnn(C)c2)c2c(c1)c(=O)n(C)c1c2cnn1C1CCN(C(=O)CO)CC1 (stereo not shown) [Example 193, 9-[1-[[6-Chloro-2-(1-methylpyrazol-4-yl)-3-pyridyl]amino]ethyl]-3-[1-(2-hydroxyacetyl)-4-piperidyl]-4,7-dimethyl-pyrazolo[3,4-c]isoquinolin-5-one] | < 1 µM |
| Cc1cc(C(C)Nc2ccc(Cl)nc2-c2ncn(C)n2)c2c(c1)c(=O)n(C)c1c2cnn1C1CCN(C(=O)C2(C#N)CC2)CC1 (stereo not shown) [Example 194, 1-(4-(9-(1-((6-chloro-2-(1-methyl-1H-1,2,4-triazol-3-yl)pyridin-3-yl)amino)ethyl)-4,7-dimethyl-5-oxo-4,5-dihydro-3H-pyrazolo[3,4-c]isoquinolin-3-yl)piperidine-1-carbonyl)cyclopropane-1-carbonitrile] | < 1 µM |
| Cc1cc(C(C)Nc2ccc(Cl)nc2-c2ncn(C)n2)c2c(c1)c(=O)n(C)c1c2cnn1C1CCN(C(=O)c2ccnn2C)CC1 (stereo not shown) [Example 195, 9-(1-((6-chloro-2-(1-methyl-1H-1,2,4-triazol-3-yl)pyridin-3-yl)amino)ethyl)-4,7-dimethyl-3-(1-(1-methyl-1H-pyrazole-5-carbonyl)piperidin-4-yl)-3,4-dihydro-5H-pyrazolo[3,4-c]isoquinolin-5-one] | < 1 µM |

Continued, values first:

| IC50 | SMILES |
| --- | --- |
| < 1 µM | COCCOc1ccc2c3c(C(C)Nc4ccccc4C(=O)O)cc(C)cc3c(=O)n(C)c2n1 (stereo not shown) [Compound I-34, 2-[1-[3-(2-Methoxyethoxy)-5,8-dimethyl-6-oxo-benzo[c][1,8]naphthyridin-10-yl]ethylamino]benzoic acid] |
| < 1 µM | CC(Nc1ccccc1C(=O)O)c1cc(Cl)cc2c(=O)n(C)c3c(cnn3C)c12 (stereo not shown) [Compound I-35, 2-((1-(7-Chloro-3,4-dimethyl-5-oxo-4,5-dihydro-3H-pyrazolo[3,4-c]isoquinolin-9-yl)ethyl)amino)benzoic acid] |
| < 1 µM | Cc1cc(C(C)Nc2ccccc2C(=O)O)c2c(c1)c(=O)n1c3c2cnn3CCC1 (stereo not shown) [Compound I-36, 2-((1-(8-Methyl-6-oxo-4,5-dihydro-3H,6H-2,2a,5a-triazaaceanthrylen-10-yl)ethyl)amino)benzoic acid] |
| < 1 µM | Cc1cc(C(C)Nc2ccc(C)nc2C(=O)O)c2c(c1)c(=O)n1c3c2cnn3CCC1 (stereo not shown) [Compound I-37, 6-Methyl-3-((1-(8-methyl-6-oxo-4,5-dihydro-3H,6H-2,2a,5a-triazaaceanthrylen-10-yl)ethyl)amino)picolinic acid] |
| < 1 µM | Cc1cc(C(C)Nc2ccccc2C(=O)O)c2c(c1)c(=O)n1c3c2cnn3C(C)CC1 (stereo not shown) [Compound I-38, 2-((1-(3,8-Dimethyl-6-oxo-4,5-dihydro-3H,6H-2,2a,5a-triazaaceanthrylen-10-yl)ethyl)amino)benzoic acid] |
| < 1 µM | Cc1cc(C(C)Nc2ccc(Cl)nc2C(=O)O)c2c(c1)c(=O)n1c3c2cnn3C(C)CC1 (stereo not shown) [Compound I-39, 6-Chloro-3-((1-(3,8-dimethyl-6-oxo-4,5-dihydro-3H,6H-2,2a,5a-triazaaceanthrylen-10-yl)ethyl)amino)picolinic acid] |

From patent US20250270213A1, “PI3Ka INHIBITORS” (Synnovation Therapeutics, Inc., priority 2022, published 2025)
